Values quoted from earlier work, collected in patent US7056538B2, “Disinfectant solution based on sodium hypochlorite, and process for preparing it” (Aziende Chimiche Riunite Angelini Francesco A.C.R.A.F. …, priority 2001, dated 2006).

Conditions: 25° C.

## OCl [hypochlorous acid]
  dissociation constant pKa: 7.49
